Reference: paper PMC5047629, “Synthesis, Pharmacological Profile and Docking Studies of New Sulfonamides Designed as Phosphodiesterase-4 Inhibitors” (PLoS ONE, 2016)

Legend:
guinea-pig trachea = test: Tracheal smooth muscle contraction in vitro induced by carbachol; conditions: 100 μM, S1A Fig
Procedure: Tracheas from guinea pigs were obtained and prepared as described previously. An initial tension of 1 g was applied to the tracheas for 60 min to obtain a constant resting tension. To confirm the viability of the preparation, the response to carbachol (2.5 μM) was recorded. After washout of carbachol and re-establishement of the baseline resting tension, tissues were preincubated with LASSBio-448 (100 μM) or vehicle (DMSO 0.1%) 15 min before re-exposed to cumulative addition of carbachol (10^−8–10^−4 M). The tracheal rings were pretreated 10 min before application of LASSBio-448 with 100 μM SQ22536 (adenylyl cyclase inhibitor). Stimulation-induced isometric contractile responses were measured with a force-displacement transducer (Ugo Basile, Comerio, Italy) and the readout used to assess contractility was obtained by isolated organ data acquisition software (Proto 5; Letica Scientific Instruments, Barcelona, Spain). Contractile responses were expressed as a percentage of the maximal contraction induced by 2.5 μM carbachol.

PDEs5-11 = test: PDE selectivity profile evaluated by CEREP; format: biochemical, human; conditions: 10 μM; data not shown
Procedure: The selectivity profile of compound 6a (LASSBio-448) toward the human PDE1, PDE2, PDE5-PDE8, PDE10 and PDE11 was evaluated by CEREP.

PDE4C = molecular target: T1, PDE4C (Homo sapiens, UniProt Q08493); test: PDE4C inhibition, IMAP fluorescence polarization protocol; format: biochemical
T1 construct: purchased MDS PHARMA
T1 sequence (Q08493 whole entry): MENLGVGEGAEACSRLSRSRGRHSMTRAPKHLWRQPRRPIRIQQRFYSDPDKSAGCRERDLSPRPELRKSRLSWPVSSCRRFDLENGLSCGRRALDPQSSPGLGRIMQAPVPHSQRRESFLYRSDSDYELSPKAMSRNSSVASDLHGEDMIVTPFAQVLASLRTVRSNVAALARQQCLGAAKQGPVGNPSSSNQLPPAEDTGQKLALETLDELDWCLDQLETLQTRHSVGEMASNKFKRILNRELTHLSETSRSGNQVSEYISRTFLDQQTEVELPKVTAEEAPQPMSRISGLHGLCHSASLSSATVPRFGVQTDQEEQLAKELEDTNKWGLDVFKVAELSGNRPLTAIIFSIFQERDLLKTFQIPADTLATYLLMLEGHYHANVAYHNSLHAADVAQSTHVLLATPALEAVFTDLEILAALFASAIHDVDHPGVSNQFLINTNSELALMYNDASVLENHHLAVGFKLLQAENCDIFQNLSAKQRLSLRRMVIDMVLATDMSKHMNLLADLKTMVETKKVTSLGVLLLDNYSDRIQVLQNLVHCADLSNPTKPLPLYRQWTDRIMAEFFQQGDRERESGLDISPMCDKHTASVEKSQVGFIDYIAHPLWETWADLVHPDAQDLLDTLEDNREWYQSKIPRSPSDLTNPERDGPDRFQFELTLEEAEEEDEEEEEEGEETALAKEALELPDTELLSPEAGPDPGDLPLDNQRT
Procedure: (§1) The enzymatic reactions were carried at room temperature in a 96-well black plate by co-incubating 25 μL of 200 nM FAM-cAMP (R7513), 5 μL of putative inhibitory compounds and 20 μL of the PDE4 isoform dissolved in assay buffer (R7364) for 1 h. All enzymes were obtained from human recombinant sources (MDS PHARMA), whereas the other reagents were purchased from Molecular Devices. […] PDE4 inhibitors were dissolved in dimethyl sulfoxide (DMSO) at a final concentration of 0.1%.
(§2) The inhibitory activities of the new sulfonamide derivatives were evaluated for their selectivity against the four isoforms of human PDE4, i.e. PDE4A, PDE4B, PDE4C, and PDE4D, using an IMAP-FP protocol.

PDE4A = molecular target: T2, PDE4A (Homo sapiens, UniProt P27815); test: PDE4A inhibition, IMAP fluorescence polarization protocol; format: biochemical
T2 construct: purchased MDS PHARMA
T2 sequence (P27815 1-647 isoform P27815-4): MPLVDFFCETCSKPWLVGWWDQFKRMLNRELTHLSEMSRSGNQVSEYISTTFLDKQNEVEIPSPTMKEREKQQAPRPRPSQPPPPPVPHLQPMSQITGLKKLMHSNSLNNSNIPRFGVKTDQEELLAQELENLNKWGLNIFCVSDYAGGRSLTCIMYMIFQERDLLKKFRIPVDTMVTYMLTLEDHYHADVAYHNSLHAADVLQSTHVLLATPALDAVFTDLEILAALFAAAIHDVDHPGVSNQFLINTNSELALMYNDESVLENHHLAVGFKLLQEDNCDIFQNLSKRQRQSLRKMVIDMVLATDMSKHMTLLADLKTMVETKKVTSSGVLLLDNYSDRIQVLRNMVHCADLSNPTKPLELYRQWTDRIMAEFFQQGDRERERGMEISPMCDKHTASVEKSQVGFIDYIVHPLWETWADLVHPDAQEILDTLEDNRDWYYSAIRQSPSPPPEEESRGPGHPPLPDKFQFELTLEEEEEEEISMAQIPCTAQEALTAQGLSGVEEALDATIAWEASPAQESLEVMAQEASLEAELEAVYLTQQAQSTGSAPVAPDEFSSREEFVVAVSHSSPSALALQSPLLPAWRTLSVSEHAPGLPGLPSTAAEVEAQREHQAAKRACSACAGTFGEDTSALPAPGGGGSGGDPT
Procedure: as §1, §2

[1] = 1 μM, mean ± SEM, 3 experiments
[2] = recombinant enzyme, mean ± SEM of three measurements

PDE4C inhibition (PDE4C; [1]): able to inhibit | inhibition at 1 µM (PDE4C; [1]): 33.7 ± 0.4% | IC50 (PDE4C; [2]): 1100 ± 130 nM | PDE4A1A inhibition (PDE4A; [1]): able to inhibit | inhibition at 1 µM (PDE4A; 1 μM, mean ± SEM, 3 experiments, read-out: PDE4A1A inhibition): 36.5 ± 0.7% | IC50 (PDE4A; [2]): 700 ± 70 nM
Compound: COc1ccc(CCNS(=O)(=O)c2cc3c(cc2C)OCO3)cc1OC [6a (LASSBio-448), N-(3,4-dimethoxyphenethyl)-6-methylbenzo[d][1, 3]dioxole-5-sulfonamide]
tracheal contraction induced by cumulative carbachol (guinea-pig trachea): inhibited | relaxant effect after pre-treatment with SQ22,536 (guinea-pig trachea; pre-treatment with 100 μM SQ22,536 (adenylyl cyclase inhibitor)): clearly abrogated | inhibition of PDEs5-11 (PDEs5-11): unable to inhibit
